According to patent US9974726B2, “Gentle cleansing compositions with makeup removal properties” (L'OREAL, priority 2016, dated 2018):

System: skin of an arm
Assay: Hydration Test (corneometer)
Format: in vivo
Conditions: n=10
Method: Each of the compositions in the table below were individually applied to the skin of an arm (n=10) and then removed with a moist cotton pad. A corneometer was used to take initial measurements, and subsequent measurements at 1, 2, and 6 hour time points.

CCCCCCCCCCCCOS(=O)(=O)[O-].[Na+] [5% sodium lauryl sulfate, sodium lauryl sulfate]
corneometer measurement, 1 hours (1 hour after application and removal with moist cotton pad, * = statistically significant): 34.2 | corneometer measurement, 2 hours (2 hours after application and removal, * = statistically significant): 33.5 | corneometer measurement, 6 hours (6 hours after application and removal, * = statistically significant): 32.4 | corneometer measurement, 0 hours (initial measurement): 30.7
